Measured values: patent publication US4156724A, “N-acylamino-alpha-arylacetamido cephalosporins and antibacterial compositions and methods containing them” (Sumitomo Chemical Company, Limited, priority 1974, dated 1979)
Converted amounts (≈) assume the structure as drawn.

Experiments:
Assay type in all cases: cell-based
[1] = tested on: Staphylococcus aureus 209 P; assay: Minimum Inhibitory Concentration, Staphylococcus aureus 209 P; details: Staphylococcus aureus 209 P; for MIC: read-out: Minimum Inhibitory Concentration
Method: (§1) anti-microbial activity tests were carried out on the compounds obtained in the Examples.

[2] = tested on: Staphylococcus aureus FS 289; assay: Minimum Inhibitory Concentration, Staphylococcus aureus FS 289; details: Staphylococcus aureus FS 289, strain resistant to penicillin; for MIC: FS289, read-out: Minimum Inhibitory Concentration
Method: as §1
*Staphylococcus aureus FS 289: strain resistant to penicillin

[3] = tested on: Escherichia coli NIHJ; assay: Minimum Inhibitory Concentration, Escherichia coli NIHJ; details: Escherichia coli NIHJ; for MIC: read-out: Minimum Inhibitory Concentration
Method: as §1

[4] = tested on: Klebsiella pneumoniae 602; assay: Minimum Inhibitory Concentration, Klebsiella pneumoniae 602; details: for MIC: Klebsiella pneumoniae, 602, Klebsiella pneumoniae 602, read-out: Minimum Inhibitory Concentration
Method: as §1

[5] = tested on: Proteus vulgaris HX 19; assay: Minimum Inhibitory Concentration, Proteus vulgaris HX 19; details: Proteus vulgaris HX 19; for MIC: HX19, read-out: Minimum Inhibitory Concentration
Method: as §1

[6] = tested on: Pseudomonas aeruginosa 104; assay: Minimum Inhibitory Concentration, Pseudomonas aeruginosa 104; details: Pseudomonas aeruginosa 104; for MIC: read-out: Minimum Inhibitory Concentration
Method: as §1

[7] = tested on: Serratia No. 72; assay: Minimum Inhibitory Concentration, Serratia No. 72
Method: as §1

[8] = tested on: Enterobacter aerogeneus No. 75; assay: Minimum Inhibitory Concentration, Enterobacter aerogeneus No. 75; details: Enterobacter aerogeneus No. 75; for MIC: read-out: Minimum Inhibitory Concentration
Method: as §1

SMILES | MIC [1] [µg/mL] | MIC [2] [µg/mL] | MIC [3] [µg/mL] | MIC [4] [µg/mL] | MIC [5] [µg/mL] | MIC [6] [µg/mL] | MIC [7] [µg/mL] | MIC [8] [µg/mL] | Minimum Inhibitory Concentration [1] [µg/mL] | Minimum Inhibitory Concentration [2] [µg/mL] | Minimum Inhibitory Concentration [3] [µg/mL] | Minimum Inhibitory Concentration ([4]; Klebsiella pneumoniae 602) [µg/mL] | Minimum Inhibitory Concentration [5] [µg/mL] | Minimum Inhibitory Concentration [6] [µg/mL] | Minimum Inhibitory Concentration [7] [µg/mL] | Minimum Inhibitory Concentration [8] [µg/mL]
Cc1nnc(SCC2=C(C(=O)O)N3C(=O)[C@@H](NC(=O)[C@H](NC(=O)c4ccnnc4O)c4ccc(NC(N)=O)cc4)[C@H]3SC2)s1 [Example 16] | 0.39 (≈ 0.593 µM) | 6.25 (≈ 9.5 µM) | 6.25 (≈ 9.5 µM) | 3.13 (≈ 4.76 µM) | 0.2 (≈ 0.304 µM) | 6.25 (≈ 9.5 µM) | 50 (≈ 76 µM) | 6.25 (≈ 9.5 µM) | – | – | – | – | – | – | – | –
Cc1ccc2c(O)c(C(=O)N[C@@H](C(=O)N[C@@H]3C(=O)N4C(C(=O)O)=C(CSc5nnnn5C)CS[C@H]34)c3ccc(NC(N)=O)cc3)cnc2n1 [Example 26] | 1.56 (≈ 2.21 µM) | 6.25 (≈ 8.86 µM) | 3.13 (≈ 4.44 µM) | 3.13 (≈ 4.44 µM) | 0.2 (≈ 0.283 µM) | 3.13 (≈ 4.44 µM) | 12.5 (≈ 17.7 µM) | 6.25 (≈ 8.86 µM) | – | – | – | – | – | – | – | –
Cn1nnnc1SCC1=C(C(=O)O)N2C(=O)[C@@H](NC(=O)[C@H](NC(=O)c3cnccc3O)c3ccc(NC(N)=O)cc3)[C@H]2SC1 [Example 13, 7-[D-α-(4-Hydroxypyridine-3-carboxyamido)-α-(p-ureidophenyl)acetamido]-3-(1-methyltetrazol-5-yl)-thiomethyl-3-cephem-4-carboxylic Acid] | 0.39 (≈ 0.609 µM) | 6.25 (≈ 9.76 µM) | 6.25 (≈ 9.76 µM) | 3.13 (≈ 4.89 µM) | 0.2 (≈ 0.312 µM) | 6.25 (≈ 9.76 µM) | 50 (≈ 78 µM) | 12.5 (≈ 19.5 µM) | – | – | – | – | – | – | – | –
CNc1nnc(SCC2=C(C(=O)O)N3C(=O)C(NC(=O)C(NC(=O)c4cnc5cccnc5c4O)c4cccc(N)c4)C3SC2)s1 (stereo not drawn) [Example 78] | 0.78 (≈ 1.15 µM) | 6.25 (≈ 9.19 µM) | 3.13 (≈ 4.6 µM) | 3.13 (≈ 4.6 µM) | 0.2 (≈ 0.294 µM) | 3.13 (≈ 4.6 µM) | 12.5 (≈ 18.4 µM) | 6.25 (≈ 9.19 µM) | – | – | – | – | – | – | – | –
COc1cc(C(NC(=O)c2cnc3cccnc3c2O)C(=O)NC2C(=O)N3C(C(=O)[O-])=C(COC(C)=O)CSC23)ccc1O.[Na+] (stereo not drawn) [Example 143] | – | – | – | – | – | – | – | – | 3.13 | 12.5 | 6.25 | 3.13 | 0.78 | 6.25 | 100 | 12.5
NC(=O)Nc1ccc([C@@H](NC(=O)c2cnc3cccnc3c2O)C(=O)N[C@@H]2C(=O)N3C(C(=O)O)=C(CSc4nnc(S)s4)CS[C@H]23)cc1 [Example 24] | 1.56 (≈ 2.15 µM) | 6.25 (≈ 8.61 µM) | 3.13 (≈ 4.31 µM) | 1.56 (≈ 2.15 µM) | 0.39 (≈ 0.537 µM) | 3.13 (≈ 4.31 µM) | 12.5 (≈ 17.2 µM) | 3.13 (≈ 4.31 µM) | – | – | – | – | – | – | – | –

Further lines, with some results ahead:

MIC [1] [µg/mL] | MIC [2] [µg/mL] | MIC [3] [µg/mL] | MIC [4] [µg/mL] | MIC [5] [µg/mL] | MIC [6] [µg/mL] | MIC [7] [µg/mL] | MIC [8] [µg/mL] | SMILES | Minimum Inhibitory Concentration [1] [µg/mL] | Minimum Inhibitory Concentration [2] [µg/mL] | Minimum Inhibitory Concentration [3] [µg/mL] | Minimum Inhibitory Concentration ([4]; Klebsiella pneumoniae 602) [µg/mL] | Minimum Inhibitory Concentration [5] [µg/mL] | Minimum Inhibitory Concentration [6] [µg/mL] | Minimum Inhibitory Concentration [7] [µg/mL] | Minimum Inhibitory Concentration [8] [µg/mL]
1.56 (≈ 2.34 µM) | 6.25 (≈ 9.39 µM) | 1.56 (≈ 2.34 µM) | 1.56 (≈ 2.34 µM) | 0.2 (≈ 0.3 µM) | 3.13 (≈ 4.7 µM) | 12.5 (≈ 18.8 µM) | 3.13 (≈ 4.7 µM) | Cn1nnnc1SCC1=C(C(=O)O)N2C(=O)C(NC(=O)C(NC(=O)c3cnc4cccnc4c3O)c3ccc(O)c(O)c3)C2SC1 (stereo not drawn) [Example 167] | – | – | – | – | – | – | – | –
1.56 (≈ 2.35 µM) | 6.25 (≈ 9.42 µM) | 1.56 (≈ 2.35 µM) | 1.56 (≈ 2.35 µM) | 0.2 (≈ 0.301 µM) | 6.25 (≈ 9.42 µM) | 25 (≈ 37.7 µM) | 6.25 (≈ 9.42 µM) | Cn1nnnc1SCC1=C(C(=O)O)N2C(=O)C(NC(=O)C(NC(=O)c3cnc4cccnc4c3O)c3ccc(CO)cc3)C2SC1 (stereo not drawn) [Example 97] | – | – | – | – | – | – | – | –
0.39 (≈ 0.697 µM) | 6.25 (≈ 11.2 µM) | 6.25 (≈ 11.2 µM) | 25 (≈ 44.7 µM) | 0.39 (≈ 0.697 µM) | 6.25 (≈ 11.2 µM) | > 200 | 25 (≈ 44.7 µM) | CC(=O)OCC1=C(C(=O)O)N2C(=O)C(NC(=O)[C@H](NC(=O)c3cnc(O)nc3O)c3ccc(O)cc3)C2SC1 (stereo partly drawn) [Example 119] | – | – | – | – | – | – | – | –
0.78 (≈ 1.17 µM) | 6.25 (≈ 9.37 µM) | 3.13 (≈ 4.69 µM) | 3.13 (≈ 4.69 µM) | 0.2 (≈ 0.3 µM) | 3.13 (≈ 4.69 µM) | 12.5 (≈ 18.7 µM) | 3.13 (≈ 4.69 µM) | Nc1cccc(C(NC(=O)c2cnc3cccnc3c2O)C(=O)NC2C(=O)N3C(C(=O)O)=C(CSc4n[nH]c(=O)s4)CSC23)c1 (stereo not drawn) [Example 80] | – | – | – | – | – | – | – | –
1.56 (≈ 2.16 µM) | 6.25 (≈ 8.65 µM) | 3.13 (≈ 4.33 µM) | 1.56 (≈ 2.16 µM) | 0.1 (≈ 0.138 µM) | 6.25 (≈ 8.65 µM) | 12.5 (≈ 17.3 µM) | 6.25 (≈ 8.65 µM) | Cc1nnc(SCC2=C(C(=O)O)N3C(=O)C(NC(=O)C(NC(=O)c4cnc5ccc(N(C)C)nc5c4O)c4ccc(CO)cc4)C3SC2)s1 (stereo not drawn) [Example 107] | – | – | – | – | – | – | – | –
0.78 (≈ 1.3 µM) | 6.25 (≈ 10.4 µM) | 6.25 (≈ 10.4 µM) | 12.5 (≈ 20.8 µM) | 0.78 (≈ 1.3 µM) | 12.5 (≈ 20.8 µM) | 50 (≈ 83.4 µM) | 12.5 (≈ 20.8 µM) | O=C(O)C1=C(CSc2cnn[nH]2)CSC2C(NC(=O)C(NC(=O)c3cnccc3O)c3ccc(O)c(O)c3)C(=O)N12 (stereo not drawn) [Example 186] | – | – | – | – | – | – | – | –
